Tested on: PHA-stimulated lymphocytes
Assay: Mixed lymphocyte culture with PHA-stimulated lymphocytes, 3[H]-thymidine incorporation
Assay type: cell-based, human
Conditions: 2 μmol 1-MT
Procedure: In order to clarify, whether the inhibitor of the enzyme indolamine-2,3-dioxygenase (IDO) 1-methyltryptophane (1-MT) influences the suppressor function of the TAIC generated in the “Mo” and “Mo+Ly” set ups (see Example 4), a variety of mixed lymphocyte cultures (MLC) with PHA (phytohaemagglutinine) stimulated T-cells in the presence and in the absence of 1-MT were established.
In these mixed lymphocyte cultures 50.000 lymphocytes with 2 μg PHA were transferred into the wells of a 96-well-plate, followed by a proliferation period over 144 hours (indicated as “PhaLy”). Lymphocytes only cultivated in medium without addition of PHA were run as a further control (indicated as “Ly”). […]
After 144 hours cultivation, all controls or co-cultures were further cultivated for 24 hours in the presence of ^3[H]-thymidine (“pulsed”) and thereafter the amount of radioactively labeled thymidine incorporated was determined as counts per minute (cpm), see FIG. 4. In this arrangement, the amount of the radio activity determined is a measure for the amount of labeled thymidine incorporated into the DNA, and therefore a measure for the proliferation rate of the lymphocytes. […]

For `Cn1cc(C[C@H](N)C(=O)O)c2ccccc21` [1-MT, 1-methyltryptophane], the “influence of 1-MT on the suppressor function of the TAIC” value was “increases the suppressor function of the TAIC synergistically” and the “influence of 1-MT on the suppressor function of the TAIC” value (listed as 1-methyltryptophane) was “no influence”.
